Assays:
[1] = Screening PK in mice, 30 mg/kg po; assay type: in vivo
[2] = Murine plasma protein binding; assay type: in vitro ADME, mouse
[3] = Human plasma-protein binding; assay type: in vitro ADME; details: for fraction unbound: human, plasma
[4] = Human hepatocyte stability; assay type: in vitro ADME; details: for clearance classification: from human hepatocyte stability
SIK2 = target: T1, SIK2 (Homo sapiens, UniProt Q9H0K1); test: Radiometric protein kinase assay (33PanQinase Activity Assay), SIK2; assay type: biochemical; details: ATP 1.0 μM
T1 construct: purchased ProQuinase, Freiburg, Germany
Procedure: (§1) Incorporation of 33Pi was determined with a microplate scintillation counter (Microbeta, Wallac).

in vitro = details: dog, MDCK
[5] = Mouse hepatocyte stability; assay type: in vitro ADME
[6] = Human liver microsomal stability; assay type: in vitro ADME
HDAC4 phosphorylation = test: TNF-induced phosphorylation of HDAC4; assay type: cell-based; details: for Inhibition of HDAC4 phosphorylation: TNF-induced; for Inhibition of HDAC phosphorylation: summary Table 4.3
[7] = tested on: MC38 syngeneic tumour model; test: MC38 syngeneic tumour model, comparative study E9 versus dasatinib (FIG. 5); assay type: in vivo, mice; details: 25 mg/kg BID
From the text: Left hand column=compound treatment group; and right hand column=vehicle treatment group. Y axes=Tumour volume (mm3); X axes=Days after inoculation.

NFKB activity (MC38) = test: TNF-induced NFKB activity in MC38 cells; assay type: cell-based, mouse; details: for Inhibition of NFKB activity: summary Table 4.3, cell line not stated; for Inhibition of NFKB activity (MC38): TNF-induced, 10 ng/ml rMuTNF
Procedure: TNF-induced NFKB activity in MC38 cells was measured analogously to the assay in PANC-1 cells described in connection with Example 9.2 (Table 9C) of WO2020/083926), except that 10 ng/ml rMuTNF was used.

MC38 cells = test: MC38 syngeneic tumour model, in-vivo anti-cancer efficacy
Procedure: Y-axis=Mean tumour volume (mm3). Error bars SEM Statistical significance was calculated with one-way ANOVA analysis including Tukey's multiple comparison analysis. X-axis=Days. (B) Probability of tumour volume <1000 mm3 of the mice in (A). Y-axis: Probability of occurrence of tumour volumes <=1000 mm3 upon treatment. X-axis: Days. […] (C) to (H) Tumour growth curves of individual mice; Y-axis: Tumour volume (mm3), X-axis: Days.

[8] = Full pharmacokinetic study with oral administration in mice; assay type: in vivo
SIK3 = target: T2, SIK3 (Homo sapiens, UniProt Q9Y2K2); test: Radiometric protein kinase assay (33PanQinase Activity Assay), SIK3; assay type: biochemical
T2 construct: purchased ProQuinase, Freiburg, Germany
Procedure: as §1

P-gp (MDR1) = test: Permeability and efflux in MDCK-MDR1 cells; assay type: in vitro ADME; details: dog
[9] = Mouse liver microsomal stability; assay type: in vitro ADME
NFKB activity (PANC-1) = test: TNF-induced NFKB activity in PANC-1 cells; assay type: cell-based
MDCK-MDR1 cells (P-gp) = test: Permeability and efflux in MDCK-MDR1 cells; assay type: in vitro ADME
MDCK-wild type cells = test: Permeability and efflux in MDCK-wild type cells
[10] = Total plasma concentration at 30 mg/kg p.o dose, C7 = 1x
[11] = mouse, plasma, mice, 30 mg/kg po, Free
[12] = mice, 30 mg/kg po, Free plasma concentration
[13] = mice, 30 mg/kg po, Total plasma concentration

T2 sequence (Q9Y2K2 whole entry): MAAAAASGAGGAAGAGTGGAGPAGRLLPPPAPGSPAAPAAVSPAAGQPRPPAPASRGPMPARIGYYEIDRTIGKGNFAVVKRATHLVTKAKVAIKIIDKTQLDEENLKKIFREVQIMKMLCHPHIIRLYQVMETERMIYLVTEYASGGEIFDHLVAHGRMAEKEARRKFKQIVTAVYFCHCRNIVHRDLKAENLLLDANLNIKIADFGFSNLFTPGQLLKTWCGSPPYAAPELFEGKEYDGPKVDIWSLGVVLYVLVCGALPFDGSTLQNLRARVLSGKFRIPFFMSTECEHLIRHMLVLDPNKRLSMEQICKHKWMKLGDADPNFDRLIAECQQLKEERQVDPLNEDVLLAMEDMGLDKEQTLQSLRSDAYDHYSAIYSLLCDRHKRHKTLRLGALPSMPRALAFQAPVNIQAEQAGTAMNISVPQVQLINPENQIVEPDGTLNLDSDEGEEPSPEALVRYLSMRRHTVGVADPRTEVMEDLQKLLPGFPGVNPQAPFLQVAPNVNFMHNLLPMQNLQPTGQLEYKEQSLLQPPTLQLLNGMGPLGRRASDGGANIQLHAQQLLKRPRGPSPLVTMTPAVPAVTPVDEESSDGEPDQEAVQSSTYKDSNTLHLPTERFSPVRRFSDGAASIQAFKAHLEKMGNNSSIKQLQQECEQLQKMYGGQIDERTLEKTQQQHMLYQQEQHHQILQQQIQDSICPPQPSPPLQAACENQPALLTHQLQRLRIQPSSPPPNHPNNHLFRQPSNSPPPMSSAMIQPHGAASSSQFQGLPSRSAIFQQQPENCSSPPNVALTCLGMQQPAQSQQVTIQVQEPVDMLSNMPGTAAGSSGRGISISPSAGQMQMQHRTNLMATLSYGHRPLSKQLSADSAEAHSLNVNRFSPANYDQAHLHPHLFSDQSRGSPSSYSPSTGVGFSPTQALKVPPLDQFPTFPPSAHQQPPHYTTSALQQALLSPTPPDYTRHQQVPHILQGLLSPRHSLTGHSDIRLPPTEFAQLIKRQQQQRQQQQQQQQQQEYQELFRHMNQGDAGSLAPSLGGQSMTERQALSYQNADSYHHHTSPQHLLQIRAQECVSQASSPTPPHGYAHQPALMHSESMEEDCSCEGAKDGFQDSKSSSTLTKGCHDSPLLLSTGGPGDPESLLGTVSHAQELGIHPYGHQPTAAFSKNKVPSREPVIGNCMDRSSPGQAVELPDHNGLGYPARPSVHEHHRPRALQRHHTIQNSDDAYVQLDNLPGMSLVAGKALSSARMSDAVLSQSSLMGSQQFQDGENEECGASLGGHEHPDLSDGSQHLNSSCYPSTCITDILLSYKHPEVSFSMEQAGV
T1 sequence (Q9H0K1 whole entry): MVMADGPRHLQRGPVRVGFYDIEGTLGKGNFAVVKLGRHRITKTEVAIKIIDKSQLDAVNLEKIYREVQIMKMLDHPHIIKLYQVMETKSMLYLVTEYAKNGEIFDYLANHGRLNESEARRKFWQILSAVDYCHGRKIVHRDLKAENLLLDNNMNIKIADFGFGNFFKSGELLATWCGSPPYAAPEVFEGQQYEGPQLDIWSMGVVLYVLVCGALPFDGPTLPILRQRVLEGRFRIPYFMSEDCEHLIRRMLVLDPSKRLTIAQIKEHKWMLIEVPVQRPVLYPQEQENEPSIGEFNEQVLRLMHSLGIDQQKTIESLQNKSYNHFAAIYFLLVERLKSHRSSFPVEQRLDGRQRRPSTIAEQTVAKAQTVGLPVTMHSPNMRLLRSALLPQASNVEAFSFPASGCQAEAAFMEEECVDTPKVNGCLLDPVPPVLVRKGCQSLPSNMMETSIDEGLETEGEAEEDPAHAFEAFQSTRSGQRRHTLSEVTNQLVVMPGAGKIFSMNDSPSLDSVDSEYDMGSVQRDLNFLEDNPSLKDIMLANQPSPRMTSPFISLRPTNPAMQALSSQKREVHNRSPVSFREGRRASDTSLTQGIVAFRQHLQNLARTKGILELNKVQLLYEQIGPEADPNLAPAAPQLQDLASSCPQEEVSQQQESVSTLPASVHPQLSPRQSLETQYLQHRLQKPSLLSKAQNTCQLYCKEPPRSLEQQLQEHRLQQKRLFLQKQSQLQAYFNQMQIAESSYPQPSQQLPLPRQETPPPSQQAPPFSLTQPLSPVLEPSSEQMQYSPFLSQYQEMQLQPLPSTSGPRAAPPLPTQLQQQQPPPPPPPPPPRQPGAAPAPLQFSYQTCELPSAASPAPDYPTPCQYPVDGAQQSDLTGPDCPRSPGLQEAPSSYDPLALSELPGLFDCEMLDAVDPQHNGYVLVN

In the case of `Cc1nc(Nc2ncc(C(=O)Nc3c(CF)csc3Cl)s2)cc(N2CCN(C)CC2)n1` [Compound E9, N-(2-chloro-4-(fluoromethyl)thiophen-3-yl)-2-((2-methyl-6-(4-methylpiperazin-1-yl)pyrimidin-4-yl)amino)thiazole-5-carboxamide], the “improvement for free serum concentration over C7” value ([1]; 30 mg/Kg po, free) is reported as 2 fold, the “improvement for total serum concentration over C7” value ([1]; 30 mg/Kg po, total) is reported as 4.5 fold and the fraction unbound ([2]; mouse plasma) is reported as less than 0.05. For the same molecule, the fraction unbound at 4 h ([2]; mouse, murine plasma, read-out: Murine plasma protein binding: Percentage unbound) was 0.01, the fraction unbound ([3]; read-out: Human plasma-protein binding: Percentage unbound) was 0.01 and the fraction unbound ([3]; read-out: human plasma protein binding) was less than 0.05. For the same molecule, the clearance classification [4] was “high clearance drugs”, the half-life ([4]; human hepatocytes) was roughly 25 min and the IC50 (SIK2) was less than 10 nM. The Papp A→B (in vitro) was 10 ×10⁻⁶ cm/s, the efflux ratio (in vitro) was 20 to 30 and the clearance classification ([5]; from mouse hepatocyte stability) was “medium clearance drug”. For the same molecule, the half-life ([5]; mouse hepatocytes) was roughly 65 min, the clearance classification ([6]; from human liver microsomal stability) was “high clearance drugs” and the half-life ([6]; human liver microsomes) was roughly 10 min. The microsomal CLint ([6]; human liver microsomes, read-out: Human liver microsomal stability: Intrinsic clearance) was 130 to 150 µL/min/mg, the “Inhibition of HDAC4 phosphorylation” value (HDAC4 phosphorylation) was “++” and the “Inhibition of HDAC phosphorylation” value (HDAC4 phosphorylation) was “++”. For the same molecule, the “average TGI” value [7] was 72%, the “Inhibition of NFKB activity” value (NFKB activity (MC38)) was “++” and the Body weight increase (MC38 cells; 25 mg/Kg, BID, po) was 16.8%. It also gave a Tumour growth inhibition (MC38 cells; 25 mg/Kg, BID, po) of 74%, a Body weight increase (MC38 cells; 50 mg/Kg, BID, po) of 18.7% and a Tumour growth inhibition (MC38 cells; 50 mg/Kg, BID, po) of 69%. The “treatment related side effects and clinical signs” value (MC38 cells; administered orally) was “no direct treatment related side effects and clinical signs”, the “AUC0-last (nM*h), relative to C7” value [8, 10] was 8.2x and the “C max (ng/ml), relative to C7” value [8, 10] was 5.6x. For the same molecule, the “MRT0-last (h), relative to C7” value [8, 10] was 1.2x, the “t1/2 (h), relative to C7” value [8, 10] was 2x and the “% AUCextrap” value ([8]; mice, 30 mg/kg po, Free) was 0.49%. The MRTlast ([8]; mice, 30 mg/kg po, Free) was 203 min, the Rsq ([8]; mice, 30 mg/kg po, Free) was 0.84 and the Tmax ([8]; mice, 30 mg/kg po, Free) was 15 min. The t1/2 ([8]; mice, 30 mg/kg po, Free) was 166 min, the “% AUCextrap” value ([8]; mice, 30 mg/kg po, Total) was 0.49% and the Rsq ([8]; mice, 30 mg/kg po, Total) was 0.84. For the same molecule, the AUC(0-inf) [8, 11] was 0.24 µM·h, the AUC(0-t) [8, 11] was 0.239 µM·h and the Cmax ([8]; mouse, mice, 30 mg/kg po, Free plasma concentration, read-out: Cmax) was 66.9 ng/mL. The “SIK3 IC50 (nM), relative to C7” value (SIK3; relative to C7 = 1x) was 0.3x, the “potency against SIK3 improved over C7 and D9” value (SIK3; relative to C7 and D9) was 2-3 times and the Papp A→B (P-gp (MDR1)) was 5 ×10⁻⁶ cm/s. The clearance classification ([9]; from mouse liver microsomal stability) was “high clearance drugs”, the half-life ([9]; mouse liver microsomes) was roughly 10 min and the microsomal CLint ([9]; mouse liver microsomes, read-out: Mouse liver microsomal stability: Intrinsic clearance) was 130 to 150 µL/min/mg.

For `Cc1nc(Nc2ncc(C(=O)Nc3c(C)csc3Cl)s2)cc(N2CCN(C)CC2)n1` [Compound D9], the “Free plasma concentration after 6 h” value ([1]; 30 mg/kg po, 6 h, free) was 8 nM, the “Inhibition of NFKB activity (PANC-1)” value (NFKB activity (PANC-1)) was “+” and the “Inhibition of HDAC4 phosphorylation” value (HDAC4 phosphorylation) was “+”. It also gave an IC50 (SIK3; ATP 1.0 μM) of roughly 60 nM.

With `Cc1nc(Nc2ncc(C(=O)Nc3c(Cl)ccnc3C)s2)cc(N2CCN(CCO)CC2)n1` [Compound B3] the “Cmax after 2 h” value ([1]; 30 mg/kg po, 2 h) was 56 ng/mL, the “Free plasma concentration after 6 h” value ([1]; 30 mg/kg po, 6 h, free) was 3 nM and the “Plasma concentration after 6 h” value ([1]; 30 mg/kg po, 6 h, total) was 29 nM. For the same molecule, the “Murine plasma protein binding: Percentage unbound” value ([2]; murine plasma) was 11%, the “Human plasma-protein binding: Percentage unbound” value [3] was 7% and the “Human liver microsomal stability: Half-life” value ([6]; human liver microsomes) was 58 min. The “Human liver microsomal stability: Intrinsic clearance” value ([6]; human liver microsomes) was 24 µL/min/mg, the Tmax ([8]; mice, 30 mg/kg po, Free) was 30 min and the t1/2 ([8]; mice, 30 mg/kg po, Free) was 144 min. The Cmax [8, 12] was 10.7 ng/mL, the “% AUCextrap” value ([8]; mice, 30 mg/kg po, Total) was 14% and the AUCinf ([8]; mice, 30 mg/kg po, Total) was 697 nM·h. For the same molecule, the AUClast ([8]; mice, 30 mg/kg po, Total) was 589 nM·h, the Tmax ([8]; mice, 30 mg/kg po, Total) was 30 min and the t1/2 ([8]; mice, 30 mg/kg po, Total) was 144 min. The Cmax [8, 13] was 99 ng/mL, the “Mouse liver microsomal stability: Half-life” value ([9]; mouse liver microsomes) was 62 min and the “Mouse liver microsomal stability: Intrinsic clearance” value ([9]; mouse liver microsomes) was 22 µL/min/mg.

In the case of `Cc1nc(Nc2ncc(C(=O)Nc3c(C)csc3Cl)s2)cc(N2CCN(CCO)CC2)n1` [Compound C7], the “Murine plasma protein binding: Percentage unbound” value ([2]; murine plasma) is reported as 3%, the “Murine plasma protein binding: Recovery at 4 h” value ([2]; murine plasma, 4 h) is reported as 87% and the “Human plasma-protein binding: Percentage unbound” value [3] is reported as 2%. For the same molecule, the “Human plasma-protein binding: Recovery at 4 h” value ([3]; 4 h) was 75%, the clearance classification [4] was “medium-to-high clearance drugs” and the “Human hepatocyte stability: Half-life” value ([4]; human hepatocytes) was 54 min. The “Human hepatocyte stability: Intrinsic clearance” value ([4]; human hepatocytes) was 26 µL/min/mg, the “half-life in the presence of human hepatocytes” value ([4]; human hepatocytes) was “approx. 1 h” and the “Mouse hepatocyte stability: Half-life” value ([5]; mouse hepatocytes) was 50 min. For the same molecule, the “Mouse hepatocyte stability: Intrinsic clearance” value ([5]; mouse hepatocytes) was 28 µL/min/mg, the “Human liver microsomal stability: Half-life” value ([6]; human liver microsomes) was 10 min and the “Human liver microsomal stability: Intrinsic clearance” value ([6]; human liver microsomes) was 142 µL/min/mg. For the same molecule, the “Inhibition of NFKB activity (PANC-1)” value (NFKB activity (PANC-1)) was “+”, the “Inhibition of HDAC4 phosphorylation” value (HDAC4 phosphorylation) was “+” and the “Inhibition of HDAC phosphorylation” value (HDAC4 phosphorylation) was “+”. For the same molecule, the “Inhibition of NFKB activity (MC38)” value (NFKB activity (MC38)) was “+”, the “Inhibition of NFKB activity” value (NFKB activity (MC38)) was “+” and the Body weight increase (MC38 cells; 100 mg/Kg, BID, po) was 1.0%. The Non-treatment related death (MC38 cells; 100 mg/Kg, BID, po) was 3/16, the Tumour growth inhibition (MC38 cells; 100 mg/Kg, BID, po) was 78% and the “% AUCextrap” value ([8]; mice, 30 mg/kg po, Free) was 11.24%. It also gave an AUCinf ([8]; mice, 30 mg/kg po, Free) of 58.79 nM·h, an AUClast ([8]; mice, 30 mg/kg po, Free) of 52.07 nM·h and an MRTlast ([8]; mice, 30 mg/kg po, Free) of 165 min. For the same molecule, the Rsq ([8]; mice, 30 mg/kg po, Free) was 0.99, the Tmax ([8]; mice, 30 mg/kg po, Free) was 120 min and the t1/2 ([8]; mice, 30 mg/kg po, Free) was 85.2 min. For the same molecule, the Cmax [8, 12] was 21.34 ng/mL, the “% AUCextrap” value ([8]; mice, 30 mg/kg po, Total) was 11.24% and the AUCinf ([8]; mice, 30 mg/kg po, Total) was 1,306.48 nM*h. The AUClast ([8]; mice, 30 mg/kg po, Total) was 1,157.10 nM*h, the MRTlast ([8]; mice, 30 mg/kg po, Total) was 165 min and the Rsq ([8]; mice, 30 mg/kg po, Total) was 0.99. It also gave a Tmax ([8]; mice, 30 mg/kg po, Total) of 120 min, a t1/2 ([8]; mice, 30 mg/kg po, Total) of 85.2 min and a Cmax [8, 13] of 474.16 ng/mL. For the same molecule, the “Mean Papp A > B” value (MDCK-MDR1 cells (P-gp)) was 2 10^−6 cm/s, the “Mean Papp A > B” value (MDCK-wild type cells) was 9 10^−6 cm/s and the “Mouse liver microsomal stability: Half-life” value ([9]; mouse liver microsomes) was 13 min. For the same molecule, the “Mouse liver microsomal stability: Intrinsic clearance” value ([9]; mouse liver microsomes) was 110 µL/min/mg.

For `Cc1nc(Nc2ncc(C(=O)Nc3c(C)cccc3Cl)s2)cc(N2CCN(CCO)CC2)n1` [Compound A8, N-(2-chloro-6-methylphenyl)-2-[[6-[4-(2-hydroxyethyl)-1-piperazinyl]-2-methyl-4-pyrimidinyl]amino]-5-thiazolecarboxamide], the Cmax ([1]; mouse, plasma, 30 mg/kg po, 2 h) was 550 ng/mL, the “Inhibition of NFKB activity (PANC-1)” value (NFKB activity (PANC-1)) was “+” and the “Inhibition of HDAC4 phosphorylation” value (HDAC4 phosphorylation) was “++”. For the same molecule, the “Inhibition of NFKB activity (MC38)” value (NFKB activity (MC38)) was “+”.

Reference: patent US20250296928A1, “A SYNTHESIS SCHEME AND PROCEDURES FOR PREPARING A SIK3 INHIBITOR AND INTERMEDIATES THEREOF” (iOmx Therapeutics AG, priority 2021, published 2025)
